The values that follow are results of earlier work, collected in patent US20050142195A1, “Stable pharmaceutical compositions without a stabilizer” (priority 2002, published 2005).

Read-outs that look alike come from different tables or passages of the source.

For `CC(NC(C)(C)C)C(=O)c1cccc(Cl)c1.Cl` (racemic) [bupropion, (±)-1-(3-chlorophenyl)-2-[(1,1-dimethylethyl)amino]-1-propanone hydrochloride], the “stability in mixture with lubricant” value is, setting by setting: (in the presence of magnesium stearate or stearic acid) “poor”; (in the presence of talc) “stable”.
